“Also recorded” adds a separate entry of the source.

Results on one compound are retold here after US20230346889A9, “TREATMENT OF ACUTE HEART FAILURE” (AnaCardio R&D AB, priority 2019, published 2023).

Data set [1] is described as follows: Plasma acyl ghrelin pharmacokinetics (custom ELISA). The class given is in vivo, human. The procedure: In samples dedicated for ghrelin measurements a protease inhibitor cocktail was prepared, consisting of 5.5 μl 10 mM KR-62436 (DPP4 inhibitor) in DMSO and a SIGMAFAST® protease inhibitor tablet (both produced by Sigma-Aldrich Corp., St. Louis, Mo., USA) dissolved in 2100 μl of distilled water (50×stock). Blood samples were drawn using 6 mL EDTA plasma tubes, immediately put on ice and 160 μl of the 50×protease inhibitor cocktail was added. Tubes were vortexed for 10 seconds and centrifuged at 4° C., 10 min, 2500 relative centrifugal force (RCF, or g). The resulting supernatant (plasma) was then pipetted into Eppendorf tubes (450 μl each) and immediately frozen at −70° C. until analyzed.
Plasma concentrations of active (acylated) ghrelin were assayed by a custom ELISA using electrochemiluminescence detection. Plasma samples were thawed and vortexed. They were then analyzed in duplicate on 96-well multispot plates (Meso Scale Diagnostics, Rockville, Md., USA) coated with capture antibodies against acyl-ghrelin according to manufacturer instructions. The Meso Scale Diagnostics Sector Imager 2400 was used to read the plates. The coefficients of variation (CV %) calculated from plasma concentrations after curve fitting were 9.3/3.5 (intra/inter-assay CV %). The lower limit of detection was 3.2 ng/L and upper limit was set at 10,000 ng/L.
On the technique in general: In an ELISA, binding on a coated surface is turned into a signal by an enzyme label.

The test system of data set [2] is isolated cardiomyocytes from SHAM and HF mice. Put plainly: Cytosolic Ca2+ transients and cell shortening in isolated cardiomyocytes. Format: cell-based, mouse. As to conditions: for cardiomyocyte fractional shortening (FS): 15 min ghrelin exposure, 100 nM, sham and post-MI HF mice; for cardiomyocyte Ca2+ transients (amplitude): SHAM and HF mice, vs placebo. The source says:
Twelve-week old C57BL6 mice were anesthetized with gas mixture of oxygen and isoflurane (2-3%). Myocardial infarction (MI) was induced in mice by permanent ligation of the left coronary artery, as previously described (Perrino et al., 2013). Briefly, mice underwent thoracotomy and subsequent left coronary ligation; ˜80% survived during the follow-up period (4-6 weeks). SHAM-operated animals underwent the same procedure without coronary artery ligation (SHAM). At study termination, after sedation, mice were euthanized through cervical dislocation.
After euthanasia, single cardiomyocytes were isolated from the left and right ventricles (mouse hearts are dominated by left ventricles) and atria were excluded, following the protocols developed by the Alliance for Cellular Signalling (AfCS Procedure Protocol ID PP00000 125) as previously described (Pironti et al., 2016).
Mouse cardiomyocytes were incubated with a cell permeable form of fluorescent indicators Fluo-3 AM followed by washing for >5 min as previously described (Andersson et al., 2011). Cardiomyocytes were plated on laminin coated glass bottom dishes. The dishes were placed in a custom built perfusion/stimulation chamber and continuously perfused with O2/CO2 (95/5%) bubbled Tyrode solution with the following composition (in mM): NaCl 121, KCl 5.0, CaCl2 1.8, MgCl2 0.5, NaH2PO4 0.4, NaHCO3 24, EDTA 0.1, glucose 5.5. The cardiomyocytes were stimulated to contract using an electrical field between two platinum electrodes attached to the perfusion/stimulation chamber. […] Fluorescence was measured using a confocal microscope Bio-Rad MRC 1024 unit attached to a Nikon Diaphot inverted microscope (40-60×oil immersion lenses). Confocal images were analyzed off line using ImageJ (National Institutes of Health; available at http://rsb.info.nih.gov/ij). Line scan confocal images were obtained from paced cardiomyocytes with the line scan running along the long axis of the cell. Changes in the emitted fluorescence, representing changes in free cytoplasmic Ca^2+, were quantified. The amplitude of Ca^2+ transients was measured as the change in the fluo-3 fluorescence signal (F) divided by the fluorescence immediately before a stimulation pulse given under control conditions (FO). Ca^2+ transient decay time constant (Tau) was quantified by fitting the decay to an exponential decay function in the GraphPad Prism software (La Jolla, Ca, USA). Fractional cell shortening was calculated from the line scan images as the fractional change in the cell length at rest and during maximal contraction.
The myocytes were superfused with physiological buffer (Tyrode solution) or for the pharmacological experiments Tyrode+Ghrelin (100 nM) or D-Lys 3 (D-Lys 3 GHS-R1a antagonist 3 μM). All cells were perfused for 15 min with respective solution before measurements, except in some experiments where D-Lys 3 (3 μM) was introduced in perfusion system 10 minutes before adding Ghrelin. All experiments were performed at room temperature (˜24° C.).
The myocytes were superfused with physiological buffer (Tyrode solution) with or without Ghrelin (Bachem, Bubendorf, Switzerland) (100 nM). All cardiomyocytes were superfused for 15 min with respective solution before measurements. An antagonist against the ghrelin receptor GHS-r1a (D-Lys 3; 3 μM), was used in some experiments. In those experiments, D-Lys 3 was introduced in superfusion system 10 minutes before adding Ghrelin.

As for `CCCCCCCC(=O)OC[C@H](NC(=O)[C@H](CO)NC(=O)CN)C(=O)N[C@@H](Cc1ccccc1)C(=O)N[C@@H](CC(C)C)C(=O)N[C@@H](CO)C(=O)N1CCC[C@H]1C(=O)N[C@@H](CCC(=O)O)C(=O)N[C@@H](Cc1cnc[nH]1)C(=O)N[C@@H](CCC(N)=O)C(=O)N[C@@H](CCCNC(=N)N)C(=O)N[C@H](C(=O)N[C@@H](CCC(N)=O)C(=O)N[C@@H](CCC(N)=O)C(=O)N[C@@H](CCCNC(=N)N)C(=O)N[C@@H](CCCCN)C(=O)N[C@@H](CCC(=O)O)C(=O)N[C@@H](CO)C(=O)N[C@@H](CCCCN)C(=O)N[C@@H](CCCCN)C(=O)N1CCC[C@H]1C(=O)N1CCC[C@H]1C(=O)N[C@@H](C)C(=O)N[C@@H](CCCCN)C(=O)N[C@@H](CC(C)C)C(=O)N[C@@H](CCC(N)=O)C(=O)N1CCC[C@H]1C(=O)N[C@@H](CCCNC(=N)N)C(=O)O)C(C)C` [Ghrelin], the “plasma acyl ghrelin” value in data set [1] (2-5 days follow-up) is on record as “normalized”. In addition, the “plasma acyl ghrelin” value in data set [1] (30 minutes after infusion) was “near normalized”. In data set [1] (during infusion, treatment group), the “median plasma acyl ghrelin concentrations” value is on record as “quickly reached near the maximum of the assay”. The level at 0.5 h in data set [1] (human, plasma, 0.1 ug/kg/min, Infusion 30 min, iv 0.1 μg/kg/min, read-out: plasma acyl ghrelin (median, interquartile range)) came to 6.11 ng/mL. Further, the level at 1 h in data set [1] (human, plasma, iv, 0.1 ug/kg/min, Infusion 60 min, read-out: plasma acyl ghrelin (median, interquartile range)) turned out to be 6.84 ng/mL. In data set [1] (human, plasma, iv, 0.1 ug/kg/min, Infusion 120 min, read-out: plasma acyl ghrelin (median, interquartile range)), the level at 2 h came out at 6.54 ng/mL. For the same compound, in data set [2], the “kinetics of Ca2+ transients (ROI and Tau)” value is on record as “did not affect”; the “cardiomyocyte fractional shortening (FS)” value was “increases contractility”; the “cardiomyocyte Ca2+ transients (amplitude)” value is listed as “did not differ”. In data set [2] (listed as ghrelin), the “cardiomyocyte fractional shortening (FS)” value is listed as “increased compared to placebo” and the “cardiomyocyte Ca2+ transients (amplitude)” value is recorded as “not different; also recorded: no difference”.
